From patent publication US20160074480A1, “INNOVATIVE METHODS OF TREATMENTING TUBERCULOSIS” (priority 2015, published 2016)

Legend:
[1] = Finger stick blood sugar after insulin; assay type: in vivo, human; conditions: 10 minutes after 5-10 units subcutaneously or IV
Method: Blood sugar was tested by using finger stick. We administered 5-10 units of homolog (rapid acting) insulin subcutaneously or IV slowly depending on the blood sugar levels. The glucose was checked 10 minutes later. It has dropped to ±40 mg %.

[2] = test system: MCF-7 Human Breast Cancer Cells; conditions: insulin with methotrexate; cited from earlier work
[3] = test system: Mycobacterium tuberculosis growth; conditions: cited from earlier work
[4] = in vivo; cited from earlier work
M. tuberculosis = conditions: added to or substituted in isoniazid, rifampicin and pyrazinamide triple therapy; cited from earlier work
pulmonary tuberculosis = conditions: given alone; cited from earlier work
latent tuberculosis = conditions: taken daily for 9 months; cited from earlier work
tuberculosis bacteria = conditions: treated for 3 days, versus untreated sample; cited from earlier work
[5] = 2 mg/kg; amikacin 450 mg/kg; cited from earlier work
[6] = target: proprotein convertase subtilisin-kexin type 9 (PCSK9) (Homo sapiens, UniProt Q8NBP7); conditions: parenteral administration; cited from earlier work

insulin: hormone produced in beta cells of pancreas, large polypeptide of A and B chains
blood glucose by finger stick [1]: ~40 mg %
enhancement of the activity of methotrexate [2]: 10,000 times

Capreomycin
concentration inhibiting growth [3]: 2.5 µg/mL
adverse effects stated in the text [4]: nephrotoxicity and 8th cranial auditory vestibular nerve toxicity

COc1nc2ccc(Br)cc2cc1[C@@H](c1ccccc1)[C@@](O)(CCN(C)C)c1cccc2ccccc12 [R-207910, Bedaquiline]
effectiveness of treatment (M. tuberculosis): increased the effectiveness

[H]/N=C(/N)N[C@H]1[C@H](O)[C@@H](O)[C@H](O[C@@H]2O[C@@H](C)[C@](O)(C=O)[C@H]2O[C@@H]2O[C@@H](CO)[C@H](O)[C@@H](O)[C@@H]2NC)[C@@H](N/C(N)=N\[H])[C@@H]1O [Streptomycin]
ADVERSE EVENT/CONTRAINDICATION [4]: Deafness, Contraindicated during pregnancy
immediate mortality (pulmonary tuberculosis): dramatic reduction in immediate mortality

NNC(=O)c1ccncc1 [isoniazid, Isoniazid]
reduction of the risk of active TB (latent tuberculosis): ≤ 90%
intracellular levels of ferrous ions (tuberculosis bacteria): up to ten times higher
ADVERSE EVENT/CONTRAINDICATION [4]: Peripheral neuropathy

CCOC(=O)C1=C[C@]2(CC)CCCN3CCc4c(n1c1ccccc41)[C@@H]32 [Vinpocetine]
hearing loss [5]: prevented hearing loss

B1: evolocumab: human monoclonal antibody that inhibits PCSK9 (antibody, chains of the INN, looked up, V domains shown)
VH: EVQLVQSGAEVKKPGASVKVSCKASGYTLTSYGISWVRQAPGQGLEWMGWVSFYNGNTNYAQKLQGRGTMTTDPSTSTAYMELRSLRSDDTAVYYCARGYGMDVWGQGTTVTVSS
VL: ESALTQPASVSGSPGQSITISCTGTSSDVGGYNSVSWYQQHPGKAPKLMIYEVSNRPSGVSNRFSGSKSGNTASLTISGLQAEDEADYYCNSYTSTSMVFGGGTKLTVL
reduction in LDL cholesterol levels [6]: 60%
